Data as given in PubChem BioAssay (NCI).
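Method: 48-hour compound exposure of cells in 96-well plates, five concentrations, linear interpolation of endpoints. The concentration for 50% growth inhibition is given as GI50. TGI: concentration producing complete growth inhibition.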

What was measured:
Experiment in all cases: NCI anticancer screen, dose series, 48 h
CCRF-CEM leukemia = tested on: CCRF-CEM leukemia
HCC-2998 colon = tested on: HCC-2998 colon
HCT-15 colon = tested on: HCT-15 colon
HT29 colon = tested on: HT29 colon
MALME-3M melanoma = tested on: MALME-3M melanoma
NCI-H226 lung = tested on: NCI-H226 lung
RPMI-8226 leukemia = tested on: RPMI-8226 leukemia
SF-295 CNS = tested on: SF-295 CNS
TK-10 renal = tested on: TK-10 renal
UO-31 renal = tested on: UO-31 renal

Compound	TGI (CCRF-CEM leukemia) [µM]	TGI (HCC-2998 colon) [µM]	TGI (HCT-15 colon) [µM]	TGI (HT29 colon) [µM]	TGI (MALME-3M melanoma) [µM]	TGI (NCI-H226 lung) [µM]	TGI (RPMI-8226 leukemia) [µM]	TGI (SF-295 CNS) [µM]	TGI (TK-10 renal) [µM]	TGI (UO-31 renal) [µM]	GI50 (CCRF-CEM leukemia) [µM]	GI50 (HCC-2998 colon) [µM]	GI50 (HCT-15 colon) [µM]	GI50 (HT29 colon) [µM]	GI50 (MALME-3M melanoma) [µM]	GI50 (NCI-H226 lung) [µM]	GI50 (RPMI-8226 leukemia) [µM]	GI50 (SF-295 CNS) [µM]	GI50 (TK-10 renal) [µM]	GI50 (UO-31 renal) [µM]
CC1OC(n2cc(I)c(=O)[nH]c2=O)C=CC1=O (configuration not stated)	7.74	31.5	32.3	30.6	28.5	32.3	38.7	32.5	32.9	30.5	–	–	–	–	–	–	–	–	–	–
O=c1[nH]c(=O)n(C2OC(CO)C(O)C2O)cc1OCc1ccccc1 (configuration not stated)	> 78.1	> 100	> 77.7	> 100	> 100	> 100	> 73.3	> 100	> 100	> 100	–	–	–	–	–	–	–	–	–	–
CC#CC(=O)N[C@H]1CCCN(c2c(F)cc(C(N)=O)c3[nH]c(C)c(C)c23)C1	85	30.7	32.9	72.3	34.3	51.6	44.8	74.5	95.7	> 100	27.5	16.6	15.9	25	16.2	21.1	16.5	27.3	24.5	15.9
Cc1ccc(C(CC(=O)c2ccccc2)C(C(=O)c2ccccc2)C(c2ccc(C)cc2)C2C(=O)NC(=S)NC2=O)cc1 (configuration not stated)	> 50	> 50	> 50	> 50	> 50	> 50	> 50	> 50	> 50	29.3	15.8	8.68	17	28.1	15.1	14.9	44.2	12.2	20.6	6.93
O=c1cc(-c2ccccc2)nc2cc(-c3ccco3)[nH]n12	> 100	> 100	> 100	> 100	94.5	> 100	89.9	25.6	96.9	59.8	16.3	13.3	6.16	4.22	3.47	47.9	13.7	3.64	19.8	7.92
CNC(=O)c1c(NC(=O)c2ccc(C(C)C)cc2)sc2c1CCC(=O)C2	–	2.94	1.47	1.6	2.94	5.29	0.675	3.35	13	1.1	0.146	0.906	0.216	0.338	0.891	1.73	0.114	1.13	0.504	0.26
C=C(CN(C)C)C(=O)c1ccc(OC)cc1	1.08	22.4	5.96	25.1	3.5	29.4	9.19	45.7	7.88	7.92	–	–	–	–	–	–	–	–	–	–
C[CH2][Sn]([Cl])([CH2]C)[CH2]C	3.12	1.66	5.79	2.62	3.77	5.36	9.17	3.92	6.94	4.05	0.368	0.354	0.637	0.439	0.572	2.48	0.399	1.41	3.02	1.65
O=C(Nc1ccc(Cl)cc1F)c1cc(Cl)ccc1O	> 44.9	8.77	–	> 31.2	1.17	7.21	1.75	2.67	> 31.2	1.92	1.62	2.23	0.519	3.2	0.256	0.429	0.302	0.99	1.31	0.208
COc1ccc2c(c1)c(-c1nc(-c3cn(C)c4ncccc34)cs1)cn2CCCCN1CCOCC1	3.23	3.77	1.47	1.95	3.41	8.81	3.89	3.48	8.19	2.56	1.02	1.73	0.627	0.766	1.65	2.53	1.25	1.57	2.73	1.2
C/C=C/C=C\C(=O)C1c2cccc(O)c2C(=O)c2c(O)cc(C)cc21 (configuration not stated)	> 100	1.6	3.6	4.21	3.12	2.57	7.26	2.25	3.76	3.08	–	–	–	–	–	–	–	–	–	–
CCOC(=O)/C(=C/c1ccc(Cl)cc1)N(CC)CC	> 100	> 100	> 100	> 100	> 100	> 100	> 100	> 100	> 100	> 100	–	–	–	–	–	–	–	–	–	–
Cc1ccc(C(O)/C(=N/N)c2nc3ccc([N+](=O)[O-])cc3[nH]c2=O)cc1 (configuration not stated)	> 100	> 100	> 100	> 100	> 100	> 100	> 100	> 100	> 100	> 100	–	–	–	–	–	–	–	–	–	–
CNc1ccc(C(=O)CC(O)CCC(C)C2OC(=O)CC(O)CC(=O)CC(O)CC(O)CC(O)CC(O)CC3(O)CC(O)C(C(=O)NCCc4ccccn4)C(CC(OC4OC(C)C(O)C(N)C4O)/C=C/C=C/C=C/C=C\C=C/C=C/C=C/C2C)O3)cc1 (configuration not stated)	> 50	4.88	> 50	> 50	0.144	9.71	> 50	11.4	0.499	–	1.77	1.59	4.75	2.65	0.0398	2.29	0.823	1.05	0.128	0.551
